In brackets after ≈: the same amount, converted by molar mass.
Columns and labels:
Staphylococcus aureus [1] = experiment: Antibacterial activity against ciprofloxacin resistant methicillin resistant Staphylococcus aureus OC4222; assay type: functional
Staphylococcus aureus [2] = experiment: Antibacterial activity against ciprofloxacin resistant methicillin resistant Staphylococcus aureus OC5273; assay type: functional
[3] = Inhibition of bacterial DNA gyrase
[4] = Inhibition of bacterial DNA topoisomerase 4
Escherichia coli = experiment: Antibacterial activity against Escherichia coli KL16; assay type: functional
Staphylococcus aureus [5] = experiment: Antibacterial activity against Staphylococcus aureus ATCC 13709; assay type: functional
Streptococcus pneumoniae = experiment: Antibacterial activity against Streptococcus pneumoniae ATCC 49619; assay type: functional
Staphylococcus aureus [6] = experiment: Antibacterial activity against quinolone susceptible methicillin resistant Staphylococcus aureus OC2878; assay type: functional
Staphylococcus aureus [7] = experiment: Antibacterial activity against ciprofloxacin resistant methicillin resistant Staphylococcus aureus OC3946; assay type: functional
Staphylococcus aureus [8] = experiment: Antibacterial activity against ciprofloxacin resistant methicillin resistant Staphylococcus aureus OC4159; assay type: functional

Structure (SMILES) | IC50 [3] | IC50 [4] | MIC (Escherichia coli) | MIC (Staphylococcus aureus [5]) | MIC (Streptococcus pneumoniae) | MIC (Staphylococcus aureus [1]) | MIC (Staphylococcus aureus [2]) | MIC (Staphylococcus aureus [6]) | MIC (Staphylococcus aureus [7]) | MIC (Staphylococcus aureus [8])
COc1ccc2nccc(-n3cc4c(n3)CCC(NCc3ccc5c(c3)NC(=O)CS5)C4)c2c1 (centres undefined) | 0.06 µg/mL (≈ 0.127 µM) | 0.16 µg/mL (≈ 0.339 µM) | 2 µg/mL (≈ 4.24 µM) | 0.5 µg/mL (≈ 1.06 µM) | 2 µg/mL (≈ 4.24 µM) | 0.25 µg/mL (≈ 0.53 µM) | 0.5 µg/mL (≈ 1.06 µM) | 0.5 µg/mL (≈ 1.06 µM) | 0.25 µg/mL (≈ 0.53 µM) | 0.25 µg/mL (≈ 0.53 µM)
COc1ccc2nccc(-n3cc4c(n3)CCC(NCc3ccc5c(c3)NC(=O)CS5)C4)c2n1 (centres undefined) | 0.125 µg/mL (≈ 0.265 µM) | 0.03 µg/mL (≈ 0.0635 µM) | 1 µg/mL (≈ 2.12 µM) | 0.25 µg/mL (≈ 0.529 µM) | 1 µg/mL (≈ 2.12 µM) | 0.125 µg/mL (≈ 0.265 µM) | 0.5 µg/mL (≈ 1.06 µM) | 0.5 µg/mL (≈ 1.06 µM) | 0.125 µg/mL (≈ 0.265 µM) | 0.25 µg/mL (≈ 0.529 µM)
O=C1CSc2ccc(C(=O)NC3CCc4nn(-c5cccc6ccccc56)cc4C3)cc2N1 (centres undefined) | 2 µg/mL (≈ 4.4 µM) | 0.125 µg/mL (≈ 0.275 µM) | > 128 µg/mL | 0.5 µg/mL (≈ 1.1 µM) | 8 µg/mL (≈ 17.6 µM) | – | – | – | – | –
O=C1CSc2ccc(C(=O)NC3CCc4nn(-c5ccnc6cc(Cl)ccc56)cc4C3)cc2N1 (centres undefined) | 16 µg/mL (≈ 32.7 µM) | > 0.5 µg/mL | > 128 µg/mL | 2 µg/mL (≈ 4.08 µM) | > 128 µg/mL | – | – | – | – | –
Cc1cc(-n2cc3c(n2)CCC(NC(=O)c2ccc4c(c2)NC(=O)CS4)C3)c2cc(F)ccc2n1 (centres undefined) | 4 µg/mL (≈ 8.2 µM) | 0.5 µg/mL (≈ 1.03 µM) | > 128 µg/mL | 8 µg/mL (≈ 16.4 µM) | > 128 µg/mL | – | – | – | – | –
COc1ccc2nccc(-n3cc4c(n3)CCC(NC(=O)c3ccc5c(c3)OCCO5)C4)c2n1 (centres undefined) | > 32 µg/mL | > 1 µg/mL | > 128 µg/mL | 0.5 µg/mL (≈ 1.09 µM) | 8 µg/mL (≈ 17.5 µM) | – | – | – | – | –
COc1ccc2nccc(-n3cc4c(n3)CCC(NC(=O)c3ccc5c(c3)OCCO5)C4)c2c1 (centres undefined) | 4 µg/mL (≈ 8.76 µM) | – | > 128 µg/mL | 2 µg/mL (≈ 4.38 µM) | 8 µg/mL (≈ 17.5 µM) | – | – | – | – | –
COc1ccc2nccc(-n3cc4c(n3)CCC(NCc3ccc5c(c3)OCCCO5)C4)c2n1 (centres undefined) | 4 µg/mL (≈ 8.74 µM) | 1 µg/mL (≈ 2.19 µM) | > 128 µg/mL | 1 µg/mL (≈ 2.19 µM) | 4 µg/mL (≈ 8.74 µM) | – | – | – | – | –
COc1ccc2nccc(-n3cc4c(n3)CCC(NC(=O)c3cc5ccccc5[nH]3)C4)c2c1 (centres undefined) | > 16 µg/mL | 1 µg/mL (≈ 2.29 µM) | > 128 µg/mL | 1 µg/mL (≈ 2.29 µM) | 8 µg/mL (≈ 18.3 µM) | – | – | – | – | –
COc1ccc2nccc(-n3cc4c(n3)CCC(NC(=O)c3cc5c(cc3F)SCC(=O)N5)C4)c2n1 (centres undefined) | 0.12 µg/mL (≈ 0.238 µM) | 0.125 µg/mL (≈ 0.248 µM) | 128 µg/mL (≈ 254 µM) | 0.25 µg/mL (≈ 0.495 µM) | 2 µg/mL (≈ 3.96 µM) | 0.015 µg/mL (≈ 0.0297 µM) | 0.031 µg/mL (≈ 0.0614 µM) | 0.031 µg/mL (≈ 0.0614 µM) | 0.007 µg/mL (≈ 0.0139 µM) | 0.007 µg/mL (≈ 0.0139 µM)
COc1ccc2nccc(-n3cc4c(n3)CCC(NC(=O)c3cc5c(cc3F)SCC(=O)N5)C4)c2c1 (centres undefined) | 8 µg/mL (≈ 15.9 µM) | 0.25 µg/mL (≈ 0.496 µM) | 4 µg/mL (≈ 7.94 µM) | 0.03 µg/mL (≈ 0.0596 µM) | 1 µg/mL (≈ 1.99 µM) | 0.031 µg/mL (≈ 0.0616 µM) | 0.062 µg/mL (≈ 0.123 µM) | 0.062 µg/mL (≈ 0.123 µM) | 0.015 µg/mL (≈ 0.0298 µM) | 0.031 µg/mL (≈ 0.0616 µM)

More lines, main results first:

IC50 [3] | IC50 [4] | MIC (Escherichia coli) | MIC (Staphylococcus aureus [5]) | MIC (Streptococcus pneumoniae) | Structure (SMILES) | MIC (Staphylococcus aureus [1]) | MIC (Staphylococcus aureus [2]) | MIC (Staphylococcus aureus [6]) | MIC (Staphylococcus aureus [7]) | MIC (Staphylococcus aureus [8])
1 µg/mL (≈ 2.25 µM) | 0.25 µg/mL (≈ 0.564 µM) | 32 µg/mL (≈ 72.2 µM) | 0.03 µg/mL (≈ 0.0676 µM) | 0.5 µg/mL (≈ 1.13 µM) | COc1ccc2nccc(-n3cc4c(n3)CCC(NCc3ccc5c(c3)OCCO5)C4)c2n1 (centres undefined) | – | – | – | – | –
0.5 µg/mL (≈ 1.09 µM) | 0.03 µg/mL (≈ 0.0654 µM) | 8 µg/mL (≈ 17.4 µM) | < 0.125 µg/mL | 0.25 µg/mL (≈ 0.545 µM) | COc1ccc2nccc(-n3cc4c(n3)CCC(NCc3ccc5c(c3)NCCS5)C4)c2n1 (centres undefined) | – | – | – | – | –
0.5 µg/mL (≈ 1.09 µM) | 0.0625 µg/mL (≈ 0.137 µM) | 8 µg/mL (≈ 17.5 µM) | 0.5 µg/mL (≈ 1.09 µM) | 0.5 µg/mL (≈ 1.09 µM) | COc1ccc2nccc(-n3cc4c(n3)CCC(NCc3ccc5c(c3)NCCS5)C4)c2c1 (centres undefined) | – | – | – | – | –
0.06 µg/mL (≈ 0.131 µM) | 0.016 µg/mL (≈ 0.035 µM) | 2 µg/mL (≈ 4.38 µM) | 1 µg/mL (≈ 2.19 µM) | 2 µg/mL (≈ 4.38 µM) | COc1ccc2nccc(-n3cc4c(n3)CCC(NCc3ccc5c(n3)NC(=O)CO5)C4)c2c1 (centres undefined) | – | – | – | – | –
1 µg/mL (≈ 2.13 µM) | 0.25 µg/mL (≈ 0.531 µM) | 4 µg/mL (≈ 8.5 µM) | 0.125 µg/mL (≈ 0.266 µM) | 8 µg/mL (≈ 17 µM) | COc1ccc2nccc(-n3cc4c(n3)CCC(NC(=O)c3ccc5c(c3)NC(=O)CO5)C4)c2n1 (centres undefined) | – | – | – | – | –
1 µg/mL (≈ 1.92 µM) | – | 8 µg/mL (≈ 15.3 µM) | 0.125 µg/mL (≈ 0.24 µM) | 1 µg/mL (≈ 1.92 µM) | COc1ccc2nccc(-n3cc4c(n3)CCC(NC(=O)c3c(F)cc5c(c3F)NC(=O)CS5)C4)c2c1 (centres undefined) | – | – | – | – | –
0.12 µg/mL (≈ 0.23 µM) | – | 2 µg/mL (≈ 3.84 µM) | < 0.125 µg/mL | 4 µg/mL (≈ 7.68 µM) | COc1ccc2nccc(-n3cc4c(n3)CCC(NC(=O)c3cc5c(cc3Cl)SCC(=O)N5)C4)c2n1 (centres undefined) | – | – | – | – | –
0.5 µg/mL (≈ 0.962 µM) | – | 2 µg/mL (≈ 3.85 µM) | < 0.125 µg/mL | 2 µg/mL (≈ 3.85 µM) | COc1ccc2nccc(-n3cc4c(n3)CCC(NC(=O)c3cc5c(cc3Cl)SCC(=O)N5)C4)c2c1 (centres undefined) | – | – | – | – | –
0.25 µg/mL (≈ 0.442 µM) | 0.25 µg/mL (≈ 0.442 µM) | 2 µg/mL (≈ 3.54 µM) | 0.125 µg/mL (≈ 0.221 µM) | 2 µg/mL (≈ 3.54 µM) | COc1ccc2nccc(-n3cc4c(n3)CCC(NC(=O)c3cc5c(cc3Br)SCC(=O)N5)C4)c2n1 (centres undefined) | – | – | – | – | –
1 µg/mL (≈ 1.81 µM) | 0.25 µg/mL (≈ 0.452 µM) | 8 µg/mL (≈ 14.5 µM) | 0.125 µg/mL (≈ 0.226 µM) | 8 µg/mL (≈ 14.5 µM) | COc1ccc2nccc(-n3cc4c(n3)CCC(NC(=O)c3cc5c(cc3C(F)(F)F)SCC(=O)N5)C4)c2c1 (centres undefined) | – | – | – | – | –
– | – | > 16 µg/mL | 2 µg/mL (≈ 3.87 µM) | 16 µg/mL (≈ 31 µM) | COc1ccc2nccc(-n3cc4c(n3)CCC(NC(=O)c3cc5c(cc3OC)SCC(=O)N5)C4)c2n1 (centres undefined) | – | – | – | – | –
